Laboratory results reported in patent US8835472B2, “Compounds, pharmaceutical compositions and uses thereof” (Boehringer Ingelheim International GmbH, priority 2010, dated 2014).
pIC50: −log10 of the molar value.

These molecules were tested against human ACC2 (Homo sapiens (Human), UniProt O00763) (assay: ACC2 assay, spectrophotometric 384 well assay (NADH-linked, coupled lactate dehydrogenase/pyruvate kinase reaction)). Details: hACC2 construct lacking the 128 N-terminal amino acids; 25° C., 340 nm over 15 minutes.
Sequence of human ACC2 (O00763 129-2458): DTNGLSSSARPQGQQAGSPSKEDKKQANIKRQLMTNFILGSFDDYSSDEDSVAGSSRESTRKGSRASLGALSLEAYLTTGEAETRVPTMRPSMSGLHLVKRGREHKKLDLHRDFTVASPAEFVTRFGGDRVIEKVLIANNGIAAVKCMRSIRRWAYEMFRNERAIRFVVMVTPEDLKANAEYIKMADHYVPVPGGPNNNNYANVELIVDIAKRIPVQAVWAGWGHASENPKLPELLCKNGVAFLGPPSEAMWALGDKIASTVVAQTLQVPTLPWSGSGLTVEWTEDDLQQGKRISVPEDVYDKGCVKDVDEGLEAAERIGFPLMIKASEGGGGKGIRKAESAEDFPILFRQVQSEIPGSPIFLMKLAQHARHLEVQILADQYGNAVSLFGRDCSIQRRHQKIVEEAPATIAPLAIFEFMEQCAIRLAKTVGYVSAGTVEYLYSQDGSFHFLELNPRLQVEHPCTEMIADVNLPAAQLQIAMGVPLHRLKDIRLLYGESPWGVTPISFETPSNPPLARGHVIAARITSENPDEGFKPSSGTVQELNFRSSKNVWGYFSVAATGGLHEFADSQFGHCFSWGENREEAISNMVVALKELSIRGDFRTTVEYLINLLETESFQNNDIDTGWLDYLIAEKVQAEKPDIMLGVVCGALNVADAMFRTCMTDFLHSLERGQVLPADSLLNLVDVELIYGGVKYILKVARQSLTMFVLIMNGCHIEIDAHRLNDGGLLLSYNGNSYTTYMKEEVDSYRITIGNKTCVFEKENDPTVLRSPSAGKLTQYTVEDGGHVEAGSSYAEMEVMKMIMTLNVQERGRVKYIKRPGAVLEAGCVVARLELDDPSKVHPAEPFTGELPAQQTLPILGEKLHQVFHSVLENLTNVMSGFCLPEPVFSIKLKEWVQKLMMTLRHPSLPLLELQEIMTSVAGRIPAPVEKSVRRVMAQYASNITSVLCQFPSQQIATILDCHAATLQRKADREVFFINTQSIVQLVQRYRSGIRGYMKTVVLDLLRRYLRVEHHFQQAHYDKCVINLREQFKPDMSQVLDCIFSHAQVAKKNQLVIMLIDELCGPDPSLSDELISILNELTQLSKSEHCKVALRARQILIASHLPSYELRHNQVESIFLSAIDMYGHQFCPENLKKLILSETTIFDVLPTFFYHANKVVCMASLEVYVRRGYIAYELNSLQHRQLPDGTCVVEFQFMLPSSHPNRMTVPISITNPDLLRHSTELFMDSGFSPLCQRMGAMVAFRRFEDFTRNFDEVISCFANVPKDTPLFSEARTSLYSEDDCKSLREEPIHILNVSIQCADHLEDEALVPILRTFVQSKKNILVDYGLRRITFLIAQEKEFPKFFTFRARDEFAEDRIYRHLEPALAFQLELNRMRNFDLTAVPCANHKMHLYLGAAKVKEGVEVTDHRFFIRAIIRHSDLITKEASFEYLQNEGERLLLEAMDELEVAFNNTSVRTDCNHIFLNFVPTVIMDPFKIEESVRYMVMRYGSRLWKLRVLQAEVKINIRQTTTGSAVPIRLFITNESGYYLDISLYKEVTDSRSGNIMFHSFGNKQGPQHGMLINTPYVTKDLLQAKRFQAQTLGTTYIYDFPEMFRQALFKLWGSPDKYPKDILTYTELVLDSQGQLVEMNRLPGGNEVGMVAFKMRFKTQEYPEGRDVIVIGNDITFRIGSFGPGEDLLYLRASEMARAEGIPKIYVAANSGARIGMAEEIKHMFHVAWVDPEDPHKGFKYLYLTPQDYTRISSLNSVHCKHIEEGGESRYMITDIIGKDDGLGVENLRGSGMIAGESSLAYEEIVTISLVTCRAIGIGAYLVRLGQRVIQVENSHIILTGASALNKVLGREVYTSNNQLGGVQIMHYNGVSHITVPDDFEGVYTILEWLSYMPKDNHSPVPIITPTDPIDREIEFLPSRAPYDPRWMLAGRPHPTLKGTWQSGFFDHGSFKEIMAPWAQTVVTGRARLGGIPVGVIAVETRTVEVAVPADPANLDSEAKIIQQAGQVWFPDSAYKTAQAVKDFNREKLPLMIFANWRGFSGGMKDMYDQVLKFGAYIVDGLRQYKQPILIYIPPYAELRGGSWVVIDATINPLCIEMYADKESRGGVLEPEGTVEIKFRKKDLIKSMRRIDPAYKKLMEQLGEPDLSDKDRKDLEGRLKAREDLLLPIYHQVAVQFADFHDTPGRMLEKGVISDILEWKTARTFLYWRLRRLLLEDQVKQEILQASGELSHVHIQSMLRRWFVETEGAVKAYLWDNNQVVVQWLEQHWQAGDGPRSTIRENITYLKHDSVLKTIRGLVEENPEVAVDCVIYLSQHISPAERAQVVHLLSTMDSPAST
Assay type: biochemical
Description: Spectrophotometric 384 Well Assay
Malonyl CoA formation by acetyl CoA carboxylases is stoichometrically linked to the consumption of ATP. ACC2 activity is measured in a NADH-linked kinetic method measuring ADP generated during the ACC reaction using a coupled lactate dehydrogenase/pyruvate kinase reaction.
For biological testing, a human ACC2 construct which lacks the 128 amino acids at the N-terminus for increased solubility (nt 385-6966 in Genbank entry AJ575592) is cloned. The protein is then expressed in insect cells using a baculoviral expression system. Protein purification is performed by anion exchange.
All compounds are dissolved in dimethyl sulfoxide (DMSO) to a concentration of 10 mM.
Assay reactions are then carried out in 384-well plates, with hACC2 in an appropriate dilution and at final assay concentrations (f.c.) of 100 mM Tris (pH 7.5), 10 mM trisodium citrate, 25 mM KHCO3, 10 mM MgCl2, 0.5 mg/mL BSA, 3.75 mM reduced L-glutathione, 15 U/mL lactate dehydrogenase, 0.5 mM phosphoenolpyruvate, 15 U/mL pyruvate kinase, compounds at different concentrations at final DMSO concentrations of 1%.
The enzymatic reaction is then started by addition of a mixture of NADH, acetyl Coenzyme A (both 200 μM f.c.) and ATP (500 uM f.c.). The decrease of the optical density (slope S) is then determined at 25° C. at a wavelength of 340 nm over 15 minutes in a spectrophotometric reader.
Each assay microtiter plate contains wells with vehicle instead of compound as controls for the non-inhibited enzyme (100% CTL; ‘HIGH’) and wells without acetyl-CoA as controls for non-specific NADH degradation (0% CTL; ‘LOW’).
The slope S is used for calculation of % CTL=(S(compound)−S(‘LOW’))/(S(‘HIGH’)−S(‘LOW’))*100. Compounds will give values between 100% CTL (no inhibition) and 0% CTL (complete inhibition).
For IC50 value determination, the sample slope in the presence of the test compound after subtraction of the low controls (S(compound)−S(‘LOW’)) are used. An IC50 value is derived from the compound slopes at different dosages after subtraction of the low controls (S(compound)−S(‘LOW’)) by non-linear regression curve fitting (equation y=(A+((B−A)/(1+((C/x)^D))))).

Point of comparison: CC(Cc1ccc(C#Cc2cnc(OC(C)C)nc2)cc1)NC(=O)C1CC1 (stereo not shown) [Example 12.25], pIC50 5.62. Against it:
- CNc1ncc(C#Cc2ccc(CC(C)NC(C)=O)cc2)cn1 (stereo not shown) [Example 13.60] — 0.98 log units higher, 6.60
- COCC1CCCN1c1nccc(C#Cc2ccc(CC(C)NC(C)=O)cc2)n1 (stereo not shown) [Example 11.35] — the same, 5.62
- CCOc1ccc(C#Cc2ccc(C(C)NC(=O)c3cocn3)cc2)cc1 (stereo not shown) [Example 4.54] — 1.10 log units lower, 4.52
- CC(=O)NC(C)Cc1ccc(C#Cc2ccc(Oc3cncnc3)cc2)cc1 (stereo not shown) [Example 10.1, N-(1-(4-((4-(Pyrimidin-5-yloxy)phenyl)ethynyl)phenyl)propan-2-yl)acetamide] — 1.10 log units higher, 6.72
- CCCCOc1ccc(C#Cc2ccc(CC(C)NC(C)=O)cc2)nn1 (stereo not shown) [Example 2.88] — 0.44 log units higher, 6.06
- CC(=O)NC(C)Cc1ccc(C#Cc2cnc(OCc3ccccc3)nc2)cc1 (stereo not shown) [Example 12.20] — 0.66 log units higher, 6.28
- CC(=O)NC(C)Cc1ccc(C#Cc2ccnc(N3CC(F)(F)C3)n2)cc1 (stereo not shown) [Example 11.22] — 0.53 log units lower, 5.09
- CC(=O)NC(C)Cc1ccc(C#Cc2ccc(OC3COC3)cc2)cc1 (stereo not shown) [Example 31.2] — 1.08 log units higher, 6.70
- CC(=O)NC(C)Cc1ccc(C#Cc2ccnc(NCC3CC3)n2)cc1 (stereo not shown) [Example 11.13] — within 0.2 log units, 5.72
- CC(=O)NC(C)Cc1ccc(C#Cc2cnc(Oc3ccc4cn[nH]c4c3)nc2)cc1 (stereo not shown) [Example 12.39] — within 0.2 log units, 5.49
- CC(=O)NC(C)Cc1ccc(C#Cc2ccnc(N(C)C3CCCCC3)n2)cc1 (stereo not shown) [Example 11.11] — 0.97 log units higher, 6.59
- CCOc1ccc(C#Cc2ccc(CC(C)NC(=O)C(O)C(C)C)cc2)cc1 (stereo not shown) [Example 4.30] — within 0.2 log units, 5.77
- COC(=O)NC(C)Cc1ccc(C#Cc2cnc(NC3CCCC3)nc2)cc1 (stereo not shown) [Example 13.35] — 0.92 log units higher, 6.54
- CCOc1ccc(C#Cc2ccc(CC(C)NC(C)=O)cc2)cn1 (stereo not shown) [Example 2.31] — 0.93 log units higher, 6.55
- CC(=O)NC(C)Cc1ccc(C#Cc2ccnc(OCc3ccccc3)c2)cc1 (stereo not shown) [Example 3.9] — 0.97 log units higher, 6.59
- CCOc1ccc(C#Cc2ccc(CC(C)NC(=O)CCOC)cc2)cc1 (stereo not shown) [Example 4.11] — 0.23 log units higher, 5.85
- CC(=O)N[C@@H](C)c1ccc(C#Cc2cnc(OCC3CC3)nc2)cc1 [Example 12.59] — within 0.2 log units, 5.80
- CCCOc1cc(C#Cc2ccc(CC(C)NC(=O)C3CC3)cc2)ccn1 (stereo not shown) [Example 14.44] — 0.82 log units higher, 6.44
- C[C@H](NC(=O)C1CC1)c1ccc(C#Cc2cnc(NC3CCC3)nc2)cc1 [Example 13.88] — within 0.2 log units, 5.51
- CCCn1ccc(C#Cc2ccc(CC(C)NC(C)=O)cc2)cc1=O (stereo not shown) [Example 14.5] — 0.23 log units lower, 5.39
- CC(=O)NC(C)Cc1ccc(C#Cc2cnc(NCC(C)C)nc2)cc1 (stereo not shown) [Example 13.20] — 0.97 log units higher, 6.59
- CCOc1ccc(C#Cc2ccc(C(C)NC(=O)CCO)cc2)cc1 (stereo not shown) [Example 4.43] — 0.66 log units lower, 4.96
- CC(=O)NC(C)Cc1ccc(C#Cc2cccc(C(=O)N(C)CCO)c2)cc1 (stereo not shown) [Example 8.22] — 0.43 log units lower, 5.19
- CCOc1ccc(C#Cc2ccc(CC(C)NC(=O)CNC)cc2)cc1 (stereo not shown) [Example 4.29] — within 0.2 log units, 5.57
- CC(=O)N[C@@H](C)Cc1ccc(C#Cc2ccc(C(C)(C)C)cc2)cc1 [Example 23.4] — 1.43 log units higher, 7.05
- CC(Cc1ccc(C#Cc2ccc(OC(F)F)cc2)cc1)NC(=O)C1CC1 (stereo not shown) [Example 2.59] — within 0.2 log units, 5.68
- CCOc1ccc(C#Cc2ccc(CC(C)NC(C)=O)cc2)nn1 (stereo not shown) [Example 2.29] — within 0.2 log units, 5.80
- COCc1ccc(C#Cc2ccc(CC(C)NC(C)=O)cc2)cc1 (stereo not shown) [Example 2.109] — 0.48 log units higher, 6.10
- CC(=O)NC(C)Cc1ccc(C#Cc2ccc(OCC3(N)CC3)c(C)c2)cc1 (stereo not shown) [Example 2.5] — 0.47 log units higher, 6.09
- CCOc1ccc(C#Cc2ccc(CC(C)NC(=O)C3CC(=O)N(C)C3)cc2)cc1 (stereo not shown) [Example 4.62] — within 0.2 log units, 5.43
- CC(=O)NC(C)Cc1ccc(C#Cc2cccc(C(=O)N3CCC(C(=O)OC(C)(C)C)C3)c2)cc1 (stereo not shown) [Example 8.49] — 0.96 log units lower, 4.66
- COc1ccc(C#Cc2ccc(CC(C)NC(=O)C3CC3)cc2)cc1OC (stereo not shown) [Example 2.71] — within 0.2 log units, 5.47
- CC(Cc1ccc(C#Cc2ccc(-c3ccc(F)cc3)cn2)cc1)NC(=O)C1CC1 (stereo not shown) [Example 1.31] — 0.73 log units higher, 6.35
- CC(=O)NC(C)Cc1ccc(C#Cc2cnc(OCc3cccc(F)c3)nc2)cc1 (stereo not shown) [Example 12.54] — 1.02 log units higher, 6.64
- CC(=O)NC(C)Cc1ccc(C#Cc2cnc(N[C@@H]3CCc4ccccc43)nc2)cc1 (stereo partly shown) [Example 13.63] — 1.08 log units higher, 6.70
- CC(Cc1ccc(C#Cc2cnc(NC3CCC3)nc2)cc1)NC(=O)C1CC1 (stereo not shown) [Example 13.44] — 0.87 log units higher, 6.49
- CCCOc1ncc(C#Cc2ccc(CC(C)NC(=O)OC)cc2)cn1 (stereo not shown) [Example 12.26] — 0.38 log units higher, 6.00
- CC(=O)NC(C)Cc1ccc(C#Cc2cnc(NCc3cnn(C)c3)nc2)cc1 (stereo not shown) [Example 13.61] — 0.20 log units lower, 5.42
- CC(=O)NC(C)Cc1ccc(C#Cc2ccc(Cl)c(C#N)c2)cc1 (stereo not shown) [Example 3.6] — within 0.2 log units, 5.64
- COCCOc1cc(C#Cc2ccc(CC(C)NC(C)=O)cc2)ccn1 (stereo not shown) [Example 20.1, N-(2-{4-[2-(2-Methoxy-ethoxy)-pyridin-4-ylethynyl]-phenyl}-1-methyl-ethyl)-acetamide; compound with trifluoro-acetic acid] — 0.39 log units higher, 6.01
- CCOc1cc(C#Cc2ccc(CC(C)NC(C)=O)cc2)ncn1 (stereo not shown) [17.1] — within 0.2 log units, 5.72
- CC(=O)NC(C)Cc1ccc(C#Cc2ccnc(N3CCC3)n2)cc1 (stereo not shown) [Example 11.12] — 0.37 log units lower, 5.25
- CCOc1ccc(C#Cc2ccc(CC(C)NC(=O)CCO)cc2)cc1 (stereo not shown) [Example 4.18] — 0.72 log units higher, 6.34
- CC(=O)NCCc1ccc(C#Cc2ccc(OCC(C)C)cc2)cc1 [Example 14.34] — 0.60 log units higher, 6.22
- CC(=O)NC(C)Cc1ccc(C#Cc2cccc(C(=O)N3CCC(c4ccncc4)C3)c2)cc1 (stereo not shown) [Example 8.31] — 0.78 log units lower, 4.84
- CC(=O)NC(C)Cc1ccc(C#Cc2cnc(NC3CCC3)nc2)cc1 (stereo not shown) [Example 13.12] — 1.34 log units higher, 6.96
- CCC(COC)Oc1ccc(C#Cc2ccc(CC(C)NC(C)=O)cc2)cc1 (stereo not shown) [Example 9.35] — 0.56 log units higher, 6.18
- CC(=O)NC(C)Cc1ccc(C#Cc2ccc(OCc3c[nH]cn3)cc2)cc1 (stereo not shown) [Example 9.38] — within 0.2 log units, 5.59
- CC(=O)NC(C)Cc1ccc(C#Cc2ccc(C(=O)N3CCC3)cc2)cc1 (stereo not shown) [Example 8.15] — within 0.2 log units, 5.66
- CCOc1ccc(C#Cc2ccc(C(C)NC(C)=O)cc2)cc1 (stereo not shown) [Example 14.51] — 0.78 log units higher, 6.40
- CCNc1ncc(C#Cc2ccc(CC(C)NC(C)=O)cc2)cn1 (stereo not shown) [Example 13.13] — 1.02 log units higher, 6.64
- CCCOc1ccc(C#Cc2ccc(CC(C)NC(C)=O)cc2)c(Cl)c1 (stereo not shown) [Example 2.93] — 1.48 log units higher, 7.10
- CC(=O)NC(C)CCc1ccc(C#Cc2ccc(OCC3CC3)cc2)cc1 (stereo not shown) [Example 14.12] — 1.15 log units higher, 6.77
- CCOc1ccc(C#Cc2ccc(CC(C)NC(=O)C(F)F)cc2)cc1 (stereo not shown) [Example 4.26] — 1.02 log units higher, 6.64
- CCOc1ccc(C#Cc2ccc(C(C)NS(=O)(=O)CC3CC3)cc2)cc1 (stereo not shown) [Example 5.2] — 0.48 log units lower, 5.14
- CC(=O)NC(C)Cc1ccc(C#Cc2cnc(OCc3cc(C)on3)nc2)cc1 (stereo not shown) [Example 12.14] — within 0.2 log units, 5.60
- COc1ccc(Oc2ncc(C#Cc3ccc(CC(C)NC(C)=O)cc3)cn2)cc1 (stereo not shown) [Example 12.50] — 0.66 log units higher, 6.28
- CCCOc1cc(C#Cc2ccc(CCC(C)NC(C)=O)cc2)ccn1 (stereo not shown) [Example 14.16] — 1.30 log units higher, 6.92
- CCC(C)CNc1ncc(C#Cc2ccc(CC(C)NC(C)=O)cc2)cn1 (stereo not shown) [Example 13.84] — 0.38 log units higher, 6.00
- CC(=O)NC(C)Cc1ccc(C#Cc2ccc(OCC3CC3C)cc2)cc1 (stereo not shown) [Example 9.24] — 1.08 log units higher, 6.70
- CC(=O)NC(C)Cc1ccc(C#Cc2cnc(N[C@H]3CCc4ccccc43)nc2)cc1 (stereo partly shown) [Example 13.62] — 0.86 log units higher, 6.48
- COCCNC(=O)c1cccc(C#Cc2ccc(CC(C)NC(C)=O)cc2)c1 (stereo not shown) [Example 8.27] — 0.67 log units lower, 4.95
- CC(=O)NC(C)c1ccc(C#Cc2ccc(OC3CC3)cc2)cc1 (stereo not shown) [Example 2.55] — 1.53 log units higher, 7.15
- CC(=O)NC(C)Cc1ccc(C#Cc2cc3c(cc2C#N)OCO3)cc1 (stereo not shown) [Example 3.7] — 0.65 log units lower, 4.97
- CC(=O)NC(C)Cc1ccc(C#Cc2cnc(OC3CCOC3)nc2)cc1 (stereo not shown) [Example 12.10] — 0.58 log units higher, 6.20
- CC(Cc1ccc(C#Cc2ccc3c(c2)CCO3)cc1)NC(=O)C1CC1 (stereo not shown) [Example 2.62] — 0.51 log units higher, 6.13
- CC(=O)NC(C)Cc1ccc(C#Cc2cccc(OC(C)C)c2)cc1 (stereo not shown) [Example 1.27] — 0.64 log units higher, 6.26
- CC(=O)NC(C)Cc1ccc(C#Cc2ccnc(N3CCN(S(C)(=O)=O)CC3)n2)cc1 (stereo not shown) [Example 11.47] — 0.49 log units lower, 5.13
- CCCOc1ncc(C#Cc2ccc(CC(C)NC(=O)N(C)C)cc2)cn1 (stereo not shown) [Example 12.30] — 1.10 log units higher, 6.72
- CC(=O)NC(C)Cc1ccc(C#Cc2cccc(C(=O)N3CCc4ccccc4C3)c2)cc1 (stereo not shown) [Example 8.51] — 1.10 log units lower, 4.52
- CCCCOc1cc(C#Cc2ccc(CC(C)NC(C)=O)cc2)ccn1 (stereo not shown) [Example 2.96] — 1.27 log units higher, 6.89
- CCCOc1cc(C#Cc2ccc([C@H](C)NC(C)=O)cc2)ccn1 [Example 14.24] — 1.08 log units higher, 6.70
